From publication PMC9394307, “Discovery of Putative Dual Inhibitor of Tubulin and EGFR by Phenotypic Approach on LASSBio-1586 Homologs” (Pharmaceuticals, 2022)

Experiments:
SF-295 = system: SF-295; design: method as in PMID 24614859, PMID 30006065, PMID 25564377; conditions: cited from earlier work
H1975 cells = assay: Cell cycle analysis by flow cytometry (Guava Muse Cell Cycle Kit); assay type: cell-based, human; conditions: H1975, 48 h of treatment; CA-4 0.04 µM, LASSBio-1586 2.0 µM, LASSBio-1735 0.08 µM, LASSBio-2070 3.0 µM, LASSBio-2074 1.5 µM; vs DMSO 0.1%
Method: Changes in the cell cycle are important aspect in tumorigenesis. Therefore, the identification of the steps related to inhibition of cell multiplication is an important process during the discovery of new antitumoral drug candidates. […] Flow cytometry was used for cell cycle analysis to estimate the percentages of a cell population in the different phases of the cell cycle. The analysis was performed using the lung cancer cell line H1975 treated with CA-4 (1, 0.04 µM), LASSBio-1586 (2, 2.0 µM), LASSBio-1735 (3, 0.08 µM), LASSBio-2070 (10, 3.0 µM) and LASSBio-2074 (11, 1.5 µM).
(§1) Flow cytometry was applied to help elucidate the mechanism of action of the studied compounds, both to verify the cell cycle phase and to verify the action on EGFR protein kinase.
The anti-tubulin effect was evaluated by seeding H1975, H292 and PC-9 into 6-well plates at a density of 2 × 10^5 per well. […] Cells were harvested and stained according to the protocols of The Guava Muse® Cell Cycle Kit (MCH100106) to quantitatively measure the percentage of cells in the G2/M phases of the cell cycle and the EGFR-RTK Activation Dual Detection Kit (MCH200102) (Luminex®) to measure EGFR phosphorylation in relation to total EGFR expression in the cell population, according to the manufacturer’s instructions for use in test kits using a Guava Muse® Cell Analyzer (Luminex®). Each experiment was performed at least three times independently.

β-tubulin = system: β-tubulin; design: method as in PMID 24614859, PMID 30006065, PMID 25564377; conditions: cited from earlier work
HCT-116 = system: HCT-116; design: method as in PMID 24614859, PMID 30006065, PMID 25564377; conditions: cited from earlier work
HL-60 = system: HL-60; design: method as in PMID 24614859; conditions: cited from earlier work
[1] = system: EGFR in PC-9 cell line (EGFR^L858R); assay: Guava Muse EGFR-RTK Activation Dual Detection Kit, flow cytometry; assay type: cell-based, human; conditions: PC-9, LASSBio-2070 0.03 µM
Method: as §1
The anti-tubulin effect was evaluated by seeding H1975, H292 and PC-9 into 6-well plates at a density of 2 × 10^5 per well. The cells were treated with the selected compounds for 72 h. Cells were harvested and stained according to the protocols of The Guava Muse® Cell Cycle Kit (MCH100106) to quantitatively measure the percentage of cells in the G2/M phases of the cell cycle and the EGFR-RTK Activation Dual Detection Kit (MCH200102) (Luminex®) to measure EGFR phosphorylation in relation to total EGFR expression in the cell population, according to the manufacturer’s instructions for use in test kits using a Guava Muse® Cell Analyzer (Luminex®). Each experiment was performed at least three times independently.

COc1cc(C(=O)N/N=C/c2ccccc2)cc(OC)c1OC [LASSBio-1586 (2), (E)-N’-benzylidene-3,4,5-trimetoxybenzohydrazide]
proliferation of SF-295 in the Hollow Fiber Assay (SF-295): able to decrease proliferation | cell cycle distribution (G0/G1, S, G2/M) (H1975 cells): increased cells in phase G2/M | ability to inhibit β-tubulin (β-tubulin): confirmed | proliferation of HCT-116 in the Hollow Fiber Assay (HCT-116): able to decrease proliferation

COc1cc(C(=O)N(C)/N=C/c2ccccc2)cc(OC)c1OC [LASSBio-1735 (3), (E)-N’-benzylidene-3,4,5-trimethoxy-N-methylbenzohydrazide]
cell cycle distribution (G0/G1, S, G2/M) (H1975 cells): increased cells in phase G2/M | cytotoxic potency against HL-60 compared with LASSBio-1586 (2) (HL-60): cytotoxic potency superior to LASSBio-1586 (2)

COc1cc(C(=O)N(Cc2ccccc2)/N=C/c2ccccc2)cc(OC)c1OC [LASSBio-2070 (10), (E)-N-benzyl-N’-benzylidene-3,4,5-trimethoxybenzohydrazide]
cell cycle distribution (G0/G1, S, G2/M) (H1975 cells): increased cells in phase G2/M | modulation of EGFR activity in a phenotypic model [1]: inhibiting the phosphorylation of EGFR

CCOC(=O)CN(/N=C/c1ccccc1)C(=O)c1cc(OC)c(OC)c(OC)c1 [LASSBio-2074 (11), Ethyl (E)-N-(benzylideneamino)-N-(3,4,5-trimethoxybenzoyl)glycinate]
cell cycle distribution (G0/G1, S, G2/M) (H1975 cells): increased cells in phase G2/M
